The source of these data is patent US11046680B1, “Heteroaryl-substituted triazoles as APJ receptor agonists” (priority 2016, dated 2021).

The target of this assay is human APJ receptor (Homo sapiens (Human), UniProt P35414). In words: biochemical. The class given is biochemical. To be noted: [35S]GTPγS binding, CHO membranes expressing human APJ receptor; read-out: Activity hAPJ SPA EC50 IP. As to the method: The human APJ receptor was cloned by polymerase chain reaction and the gene encoding the receptor was subcloned in pFLAG-CMV™-3 expression vector (Sigma, Saint Louis, Mo. USA) in-house at Amgen. A GTPγS binding assay was performed on membranes prepared from CHO cells stably expressing human APJ receptor. The optimum experimental conditions for the concentrations of GDP, MgCl2, and NaCl in the assay buffer were initially determined. […] Incubation was at RT for 90 min and the microplate was read using a ViewLux™ ultra HTS Microplate Imager (PerkinElmer, Inc.).
human APJ receptor, sequence (P35414 whole entry): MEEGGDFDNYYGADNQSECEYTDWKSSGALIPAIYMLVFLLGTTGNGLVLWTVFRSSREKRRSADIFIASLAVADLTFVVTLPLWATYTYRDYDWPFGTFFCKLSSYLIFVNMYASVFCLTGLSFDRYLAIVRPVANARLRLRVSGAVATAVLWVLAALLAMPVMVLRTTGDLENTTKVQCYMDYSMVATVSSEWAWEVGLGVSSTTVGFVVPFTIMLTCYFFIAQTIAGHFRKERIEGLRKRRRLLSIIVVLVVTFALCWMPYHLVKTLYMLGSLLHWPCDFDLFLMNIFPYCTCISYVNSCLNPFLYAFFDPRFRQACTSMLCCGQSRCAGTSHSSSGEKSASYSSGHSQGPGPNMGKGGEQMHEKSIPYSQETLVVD
In general terms: Binding of GTPγS marks nucleotide exchange on a G protein.

A word on the EC50: it is the concentration at which the effect is half-maximal. Take `COc1cccc(OC)c1-n1c(NS(=O)(=O)[C@H](C)Cc2ncc(F)cn2)nnc1-c1nc(C2CC2)cs1` (single isomer, unassigned) [Example 159.0, (R)-N-(5-(4-cyclopropylthiazol-2-yl)-4-(2,6-dimethoxyphenyl)-4H-1,2,4-triazol-3-yl)-1-(5-fluoropyrimidin-2-yl)propane-2-sulfonamide or (S)-N-(5-(4-cyclopropylthiazol-2-yl)-4-(2,6-dimethoxyphenyl)-4H-1,2,4-triazol-3-yl)-1-(5-fluoropyrimidin-2-yl)propane-2-sulfonamide]: the EC50 was 0.61 nM. For `COc1ccccc1-n1c(NS(=O)(=O)Cc2ccc(Cl)cc2)nnc1-c1cccs1` [Example 234.0, 1-(4-chlorophenyl)-N-(4-(2-methoxyphenyl)-5-(2-thiophenyl)-4H-1,2,4-triazol-3-yl)methanesulfonamide] the value was 340 nM.

Turning to `COc1cccc(OC)c1-n1c(NS(=O)(=O)[C@@H](C)[C@H](C)c2ncc(F)cn2)nnc1-c1cnn2c1CCC2` [Example 479.0, (2S,3R)-N-(5-(5,6-dihydro-4H-pyrrolo[1,2-b]pyrazol-3-yl)-4-(2,6-dimethoxyphenyl)-4H-1,2,4-triazol-3-yl)-3-(5-fluoropyrimidin-2-yl)butane-2-sulfonamide], the EC50 was determined as 0.56 nM.

For the molecule `COc1cccc(OC)c1-n1c(NS(=O)(=O)[C@H](C)Cc2ncc(F)cn2)nnc1-c1ncccn1` (single isomer, unassigned) [Example 59.0, (R)-N-(4-(2,6-dimethoxyphenyl)-5-(pyrimidin-2-yl)-4H-1,2,4-triazol-3-yl)-1-(5-fluoropyrimidin-2-yl)propane-2-sulfonamide or (S)-N-(4-(2,6-dimethoxyphenyl)-5-(pyrimidin-2-yl)-4H-1,2,4-triazol-3-yl)-1-(5-fluoropyrimidin-2-yl)propane-2-sulfonamide], the EC50 was 110 nM.

As to `COc1cccc(OC)c1-n1c(NS(=O)(=O)[C@@H](C)[C@H](OC)c2ncc(C)cn2)nnc1-c1cscn1` [Example 342.0, (1R,2S)-N-(4-(2,6-dimethoxyphenyl)-5-(1,3-thiazol-4-yl)-4H-1,2,4-triazol-3-yl)-1-methoxy-1-(5-methyl-2-pyrimidinyl)-2-propanesulfonamide], the EC50 turned out to be 0.5 nM. For `COC[C@H](C)n1c(NS(=O)(=O)[C@@H](C)[C@H](C)c2ncc(Cl)cn2)nnc1-c1ccn(C)n1` [Example 533.0, (2S,3R)-3-(5-chloro-2-pyrimidinyl)-N-(4-((2S)-1-methoxy-2-propanyl)-5-(1-methyl-1H-pyrazol-3-yl)-4H-1,2,4-triazol-3-yl)-2-butanesulfonamide] the value was 110 nM. For `COc1cccc(OC)c1-n1c(NS(=O)(=O)[C@@H]2CCCN(c3ncc(F)cn3)C2)nnc1-c1ccn(C)n1` (single isomer, unassigned) [Example 261.0, (3R)-N-(4-(2,6-dimethoxyphenyl)-5-(1-methyl-1H-pyrazol-3-yl)-4H-1,2,4-triazol-3-yl)-1-(5-fluoro-2-pyrimidinyl)-3-piperidinesulfonamide or (3S)-N-(4-(2,6-dimethoxyphenyl)-5-(1-methyl-1H-pyrazol-3-yl)-4H-1,2,4-triazol-3-yl)-1-(5-fluoro-2-pyrimidinyl)-3-piperidinesulfonamide] the value was 190 nM; for “(R)-N-(4-(2,6-dimethoxyphenyl)-5-(pyrimidin-4-yl)-4H-1,2,4-triazol-3-yl)-1-(5-fluoropyrimidin-2-yl)propane-2-sulfonamide and (R)-N-(4-(2,6-dimethoxyphenyl)-5-(pyrimidin-4-yl)-4H-1,2,4-triazol-3-yl)-1-(5-fluoropyrimidin-2-yl)propane-2-sulfonamide [Example 31.0]”, 190 nM; for `COc1cccc(OC)c1-n1c(NS(=O)(=O)C[C@H](O)c2ccc(Cl)cn2)nnc1-c1ccn(C)n1` (mixture of isomers) [Example 363.0, (R)-2-(5-Chloropyridin-2-yl)-N-(4-(2,6-dimethoxyphenyl)-5-(1-methyl-1H-pyrazol-3-yl)-4H-1,2,4-triazol-3-yl)-2-hydroxyethanesulfonamide and (S)-2-(5-chloropyridin-2-yl)-N-(4-(2,6-dimethoxyphenyl)-5-(1-methyl-1H-pyrazol-3-yl)-4H-1,2,4-triazol-3-yl)-2-hydroxyethanesulfonamide], 1.5 nM.

As to `COc1cccc(OC)c1-n1c(NS(=O)(=O)C(C)Cc2ncc(F)cn2)nnc1-c1cc(C)no1` (stereo in doubt) [Example 57.0, (R)-N-(4-(2,6-dimethoxyphenyl)-5-(3-methylisoxazol-5-yl)-4H-1,2,4-triazol-3-yl)-1-(5-fluoropyrimidin-2-yl)propane-2-sulfonamide and (R)-N-(4-(2,6-dimethoxyphenyl)-5-(3-methylisoxazol-5-yl)-4H-1,2,4-triazol-3-yl)-1-(5-fluoropyrimidin-2-yl)propane-2-sulfonamide], the EC50 is 42 nM. For `COc1cccc(OC)c1-n1c(NS(=O)(=O)[C@@H](C)[C@H](C)c2ncc(C)cn2)nnc1-c1cc2n(n1)CCC2` [Example 219.0, (2S,3R)-N-(5-(5,6-dihydro-4H-pyrrolo[1,2-b]pyrazol-2-yl)-4-(2,6-dimethoxyphenyl)-4H-1,2,4-triazol-3-yl)-3-(5-methyl-2-pyrimidinyl)-2-butanesulfonamide] the value was 1.7 nM. As to `COc1cccc(OC)c1-n1c(NS(=O)(=O)[C@@H](C)[C@@H](C)c2ncc(F)cn2)nnc1-c1nc(C)cs1` (single isomer, unassigned) [Example 119.0], the EC50 is 4.6 nM.

As for `COc1cccc(OC)c1-n1c(NS(=O)(=O)[C@@H]2C[C@@H](O)CN(c3ncc(F)cn3)C2)nnc1-c1nc(C)cs1` (single isomer, unassigned) [Example 257.0, (3R,5R)-N-(4-(2,6-dimethoxyphenyl)-5-(4-methyl-1,3-thiazol-2-yl)-4H-1,2,4-triazol-3-yl)-1-(5-fluoro-2-pyrimidinyl)-5-hydroxy-3-piperidinesulfonamide or (3S,5S)-N-(4-(2,6-dimethoxyphenyl)-5-(4-methyl-1,3-thiazol-2-yl)-4H-1,2,4-triazol-3-yl)-1-(5-fluoro-2-pyrimidinyl)-5-hydroxy-3-piperidinesulfonamide], the EC50 is 3.9 nM. For `COc1cccc(OC)c1-n1c(NS(=O)(=O)[C@H](C)Cc2ncc(F)cn2)nnc1-c1cc(C)no1` (single isomer, unassigned) [Example 63.0, (R)-N-(4-(2,6-dimethoxyphenyl)-5-(3-methylisoxazol-5-yl)-4H-1,2,4-triazol-3-yl)-1-(5-fluoropyrimidin-2-yl)propane-2-sulfonamide or (R)-N-(4-(2,6-dimethoxyphenyl)-5-(3-methylisoxazol-5-yl)-4H-1,2,4-triazol-3-yl)-1-(5-fluoropyrimidin-2-yl)propane-2-sulfonamide] the value was 85 nM; for `COc1cccc(OC)c1-n1c(NS(=O)(=O)C[C@H](OC)c2ccc(Cl)cc2S(C)(=O)=O)nnc1-c1ccn(C)n1` (mixture of isomers) [Example 305.0, (2R)-2-(4-Chloro-2-(methylsulfonyl)phenyl)-N-(4-(2,6-dimethoxyphenyl)-5-(1-methyl-1H-pyrazol-3-yl)-4H-1,2,4-triazol-3-yl)-2-methoxyethanesulfonamide and (2S)-2-(4-chloro-2-(methylsulfonyl)phenyl)-N-(4-(2,6-dimethoxyphenyl)-5-(1-methyl-1H-pyrazol-3-yl)-4H-1,2,4-triazol-3-yl)-2-methoxyethanesulfonamide], 0.44 nM. For `COCC1(n2c(NS(=O)(=O)[C@@H](C)[C@H](OC)c3ncc(Cl)cn3)nnc2-c2cnn3ccccc23)CC1` [Example 509.0, (1R,2S)-1-(5-chloropyrimidin-2-yl)-1-methoxy-N-(4-(1-(methoxymethyl)cyclopropyl)-5-(pyrazolo[1,5-a]pyridin-3-yl)-4H-1,2,4-triazol-3-yl)propane-2-sulfonamide] the value was 4.1 nM.

Turning to `COc1cnc([C@@H](C)[C@H](C)S(=O)(=O)Nc2nnc(-c3ccn(C)n3)n2-c2c(OC)ncnc2OC)cn1` [Example 292.0, (2S,3R)-N-(4-(4,6-dimethoxy-5-pyrimidinyl)-5-(1-methyl-1H-pyrazol-3-yl)-4H-1,2,4-triazol-3-yl)-3-(5-methoxy-2-pyrazinyl)-2-butanesulfonamide], the EC50 amounted to 1.2 nM. For `CNC(=O)n1ccc(-c2nnc(NS(=O)(=O)[C@@H](C)Cc3ncc(F)cn3)n2-c2c(OC)cccc2OC)n1` (racemic) [Example 72.0, (R)-3-(4-(2,6-dimethoxyphenyl)-5-(2-(5-fluoropyrimidin-2-yl)-1-methylethylsulfonamido)-4H-1,2,4-triazol-3-yl)-N-methyl-1H-pyrazole-1-carboxamide (S)-3-(4-(2,6-dimethoxyphenyl)-5-(2-(5-fluoropyrimidin-2-yl)-1-methylethylsulfonamido)-4H-1,2,4-triazol-3-yl)-N-methyl-1H-pyrazole-1-carboxamide] the value was 41 nM. For `COc1cnc([C@@H](C)[C@H](C)S(=O)(=O)Nc2nnc(-c3ccn(C)n3)n2-c2c(OC)ncnc2OC)nc1` [Example 296.0, (2S,3R)-N-(4-(4,6-dimethoxy-5-pyrimidinyl)-5-(1-methyl-1H-pyrazol-3-yl)-4H-1,2,4-triazol-3-yl)-3-(5-methoxy-2-pyrimidinyl)-2-butanesulfonamide] the value was 2.7 nM; for `COc1cccc(OC)c1-n1c(NS(=O)(=O)CCN2C(=O)N(C)CC[C@@H]2C)nnc1-c1nc(C)cs1` [Example 13.0, N-(4-(2,6-dimethoxyphenyl)-5-(4-methyl-1,3-thiazol-2-yl)-4H-1,2,4-triazol-3-yl)-2-((6S)-3,6-dimethyl-2-oxotetrahydro-1(2H)-pyrimidinyl)ethanesulfonamide], 2.9 nM.
